Results reported in patent US20230135152A1 (ACURASTEM INCORPORATED, priority 2020, published 2023).
Counter-ions that a name gives are not always drawn.

The compounds below were run against PIKFYVE (Homo sapiens, UniProt Q9Y2I7) (assay: PIKFYVE assay (luciferase ADP-Glo kinase assay, Promega)). Details: Table 1.
Sequence of PIKFYVE (Q9Y2I7 whole entry): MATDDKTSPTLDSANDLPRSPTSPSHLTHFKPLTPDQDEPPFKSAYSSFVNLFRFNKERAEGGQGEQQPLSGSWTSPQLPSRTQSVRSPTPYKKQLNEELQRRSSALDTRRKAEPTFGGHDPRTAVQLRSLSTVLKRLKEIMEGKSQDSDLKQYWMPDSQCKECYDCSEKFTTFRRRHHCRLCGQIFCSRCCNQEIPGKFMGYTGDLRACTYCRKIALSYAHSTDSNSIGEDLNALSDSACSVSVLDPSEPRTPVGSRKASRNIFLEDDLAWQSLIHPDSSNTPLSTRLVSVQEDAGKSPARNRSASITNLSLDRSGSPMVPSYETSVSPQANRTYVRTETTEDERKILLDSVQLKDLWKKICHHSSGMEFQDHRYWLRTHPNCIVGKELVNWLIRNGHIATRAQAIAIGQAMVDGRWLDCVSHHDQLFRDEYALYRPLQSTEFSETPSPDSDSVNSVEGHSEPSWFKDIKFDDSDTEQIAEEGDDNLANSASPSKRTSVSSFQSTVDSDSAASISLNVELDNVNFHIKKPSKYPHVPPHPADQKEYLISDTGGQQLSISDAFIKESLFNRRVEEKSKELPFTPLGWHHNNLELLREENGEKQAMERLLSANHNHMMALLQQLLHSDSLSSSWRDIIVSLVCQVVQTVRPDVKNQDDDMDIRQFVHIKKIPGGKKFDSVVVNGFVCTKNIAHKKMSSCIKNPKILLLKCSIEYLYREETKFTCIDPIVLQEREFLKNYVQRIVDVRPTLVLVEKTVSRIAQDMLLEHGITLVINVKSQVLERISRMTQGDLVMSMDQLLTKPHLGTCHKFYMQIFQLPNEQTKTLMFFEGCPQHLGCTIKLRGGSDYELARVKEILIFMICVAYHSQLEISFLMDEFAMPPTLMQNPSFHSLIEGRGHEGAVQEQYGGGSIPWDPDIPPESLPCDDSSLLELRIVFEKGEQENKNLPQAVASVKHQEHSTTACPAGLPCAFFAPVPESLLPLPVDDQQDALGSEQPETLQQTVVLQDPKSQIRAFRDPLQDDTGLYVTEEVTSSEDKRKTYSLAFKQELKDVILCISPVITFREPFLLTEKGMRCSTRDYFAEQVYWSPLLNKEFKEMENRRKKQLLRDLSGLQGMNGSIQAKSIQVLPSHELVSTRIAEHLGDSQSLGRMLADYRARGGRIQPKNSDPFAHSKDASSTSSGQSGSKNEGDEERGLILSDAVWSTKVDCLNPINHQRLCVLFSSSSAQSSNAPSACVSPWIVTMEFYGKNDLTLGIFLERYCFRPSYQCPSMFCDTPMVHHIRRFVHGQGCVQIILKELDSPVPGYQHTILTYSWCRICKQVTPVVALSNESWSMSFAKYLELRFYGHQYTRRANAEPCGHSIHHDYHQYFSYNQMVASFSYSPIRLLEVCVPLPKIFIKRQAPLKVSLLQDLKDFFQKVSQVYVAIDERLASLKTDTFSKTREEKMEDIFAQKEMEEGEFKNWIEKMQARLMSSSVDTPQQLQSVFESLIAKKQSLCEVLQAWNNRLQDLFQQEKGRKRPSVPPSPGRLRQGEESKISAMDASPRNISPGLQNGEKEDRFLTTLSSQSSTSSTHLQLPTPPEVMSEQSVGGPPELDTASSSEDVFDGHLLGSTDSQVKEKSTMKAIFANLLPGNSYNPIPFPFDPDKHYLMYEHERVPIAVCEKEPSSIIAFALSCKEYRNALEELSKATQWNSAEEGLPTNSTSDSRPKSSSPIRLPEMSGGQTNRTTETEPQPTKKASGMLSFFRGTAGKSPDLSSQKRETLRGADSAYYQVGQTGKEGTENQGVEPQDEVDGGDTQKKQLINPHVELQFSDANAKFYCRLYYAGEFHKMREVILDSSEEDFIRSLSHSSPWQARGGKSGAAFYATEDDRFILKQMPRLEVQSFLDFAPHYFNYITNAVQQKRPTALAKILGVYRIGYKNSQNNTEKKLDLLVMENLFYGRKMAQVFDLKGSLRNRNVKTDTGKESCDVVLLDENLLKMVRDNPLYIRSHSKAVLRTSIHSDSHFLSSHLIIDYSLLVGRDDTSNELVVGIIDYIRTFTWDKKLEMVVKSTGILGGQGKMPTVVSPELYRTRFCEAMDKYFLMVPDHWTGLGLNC
Assay type: biochemical
Experimental: The activity of Compounds 1-20 was measured using a PIKFYVE assay (luciferase ADP-Glo kinase assay available from Promega Corp. of Madison, Wis.).
The activity of Compounds 39-90 was also measured using a PIKFYVE assay (luciferase ADP-Glo kinase assay available from Promega Corp. of Madison, Wis.).
The activity of Compounds 93-347 was also measured using a PIKFYVE assay (luciferase ADP-Glo kinase assay available from Promega Corp. of Madison, Wis.).
Compound `COCCSc1cc(-n2ccc(-c3cccc(C)c3)n2)nc(OCC2CCCO2)n1` (stereo not drawn) [Compound 18, 4-((2-methoxyethyl)thio)-2-((tetrahydrofuran-2-yl)methoxy)-6-(3-(m-tolyl)-1H-pyrazol-1-yl)pyrimidine] has an IC50 of 1000 to 10000 nM.

Same assay, conditions: Table 2
With `Clc1ccc(-c2ccn(-c3cc(N4CCOCC4)nc(OCCc4ccccn4)n3)n2)cc1` [Compound 40] the IC50 was 101 to 1000 nM. Work on `Fc1ccc(-c2cnn(-c3cc(N4CC[C@H]5OCC[C@H]54)nc(OCCc4ccccn4)n3)c2)cc1` [Compound 41] yielded an IC50 of 1000 to 10000 nM. For `Cc1cccc(-c2ccn(-c3cc(N4CCOCC4)nc(Cc4ccccc4)n3)n2)c1` [Compound 42], the IC50 was 101 to 1000 nM. In the case of `c1cc(-c2cc(N3CCOCC3)nc(OCC3CCCO3)n2)n[nH]1` (stereo not drawn) [Compound 45, 4-(6-(1H-pyrazol-3-yl)-2-((tetrahydrofuran-2-yl)methoxy)pyrimidin-4-yl)morpholine], the IC50 is reported as 101 to 1000 nM. Compound `Cc1cccc(-c2ccn(-c3cc(N4CCOCC4)nc(NCCc4ccccn4)n3)n2)c1` [Compound 46, 4-morpholino-N-(2-(pyridin-2-yl)ethyl)-6-(3-(m-tolyl)-1H-pyrazol-1-yl)pyrimidin-2-amine] has an IC50 of 5 to 100 nM. `Cc1cccc(-c2ccn(-c3nc(NCCc4cnccn4)cc(N4CCOCC4)n3)n2)c1` [Compound 47] was tested, and the IC50 was 5 to 100 nM. With `Cc1cccc(-c2ccn(-c3cc(N4CC[C@H]5OCC[C@H]54)nc(C(O)CO)n3)n2)c1` (stereo partly drawn) [Compound 48] the IC50 was 101 to 1000 nM. For `COCC(O)c1nc(N2CCOCC2)cc(-n2ccc(-c3cccc(C)c3)n2)n1` (stereo not drawn) [Compound 49], the IC50 was 5 to 100 nM. With `COC(CO)c1nc(N2CCOCC2)cc(-n2ccc(-c3cccc(C)c3)n2)n1` (stereo not drawn) [Compound 50] the IC50 was < 5 nM. `CC(C)(C)c1ccn(-c2cc(N3CCOCC3)nc(OCC(O)CO)n2)n1` (stereo not drawn) [Compound 51] was tested, and the IC50 was 1000 to 10000 nM. `OCC(O)COc1nc(N2CCOCC2)cc(-n2cc3ccccc3n2)n1` (stereo not drawn) [Compound 52] was tested, and the IC50 was 101 to 1000 nM. `OCC(O)COc1nc(N2CCOCC2)cc(-n2ncc3ccccc32)n1` (stereo not drawn) [Compound 53] gave an IC50 of 101 to 1000 nM. In the case of `Cc1cn(-c2cc(N3CCOCC3)nc(OCCc3cnn(C)c3)n2)nc1-c1ccccc1` [Compound 63, 4-(2-(2-(1-methyl-1H-pyrazol-4-yl)ethoxy)-6-(4-methyl-3-phenyl-1H-pyrazol-1-yl)pyrimidin-4-yl)morpholine], the IC50 is reported as 101 to 1000 nM. In the case of `Cc1cccc(-c2ccn(-c3cc(N4CCOCC4)nc(NC(=O)Cc4cnn(C)c4)n3)n2)c1` [Compound 65], the IC50 is reported as < 5 nM. With `Cc1cccc(-c2ccn(-c3cc(N4CCOCC4)nc(OCC4(C)COC4)n3)n2)c1` [Compound 67] the IC50 was < 5 nM. With `Cn1cc(CCOc2nc(N3CCOCC3)cc(-n3ccc(-c4ccccc4)n3)n2)cn1` [Compound 73] the IC50 was < 5 nM. Work on `OCc1nc(N2CCOCC2)cc(-n2ccc(-c3ccccc3)n2)n1` [Compound 84] yielded an IC50 of 5 to 100 nM. For `Cn1cc(CCOc2nc(N3CCOCC3)cc(-n3ccc(-c4cccc(CO)c4)n3)n2)cn1` [Compound 89], the IC50 was < 5 nM.

Same assay, conditions: Table 3
Compound `CO[C@H](CO)c1nc(N2CCOCC2)cc(-n2nc(-c3ccccc3)cc2C2CC2)n1` (single isomer, unassigned) [Compound 256] has an IC50 of 10 to 100 nM. `CO[C@@H](CO)c1nc(N2CCOCC2)cc(-n2nc(-c3ccccc3)cc2C2CC2)n1` (single isomer, unassigned) [Compound 257] was tested, and the IC50 was 10 to 100 nM. Work on `CO[C@H](C)c1cccc(-c2ccn(-c3cc(N4CCOCC4)nc(OCCc4cnn(C)c4)n3)n2)c1` (single isomer, unassigned) [Compound 340] yielded an IC50 of 10 to 100 nM. For `CO[C@@H](CO)c1nc(N2CCOCC2)cc(-n2ccc(-c3cc(C)ccc3C)n2)n1` (single isomer, unassigned) [Compound 342], the IC50 was 10 to 100 nM. In the case of `CO[C@H](CO)c1nc(N2CCOCC2)cc(-n2ccc(-c3cc(C)ccc3C)n2)n1` (single isomer, unassigned) [Compound 343], the IC50 is reported as 10 to 100 nM. `Cc1cccc(-c2ccn(-c3cc(N4CCOCC4)nc(N(C)CCc4ccccn4)n3)n2)c1` [Compound 91, N-methyl-4-morpholino-N-(2-(pyridin-2-yl)ethyl)-6-(3-(m-tolyl)-1H-pyrazol-1-yl)pyrimidin-2-amine] showed an IC50 of 3 to 10 nM. With `Cc1cccc(-c2ccn(-c3cc(N4CCOCC4)nc(OCCc4ccccn4)n3)n2)c1` [Compound 92, 4-(2-(2-(pyridin-2-yl)ethoxy)-6-(3-(m-tolyl)-1H-pyrazol-1-yl)pyrimidin-4-yl)morpholine] the IC50 was 3 to 10 nM. With `Cc1cccc(-c2ccn(-c3cc(N4CC[C@H]5OCC[C@H]54)nc(C(O)CO)n3)n2)c1` (stereo partly drawn) [Compound 151, 1-(4-((3aR,6aR)-hexahydro-4H-furo[3,2-b]pyrrol-4-yl)-6-(3-(m-tolyl)-1H-pyrazol-1-yl)pyrimidin-2-yl)ethane-1,2-diol] the IC50 was 10 to 100 nM. `Cn1cc(CCOc2nc(N3CCOCC3)cc(-n3ccc(C4CCC4)n3)n2)cn1` [Compound 192, 4-(6-(3-cyclobutyl-1H-pyrazol-1-yl)-2-(2-(1-methyl-1H-pyrazol-4-yl)ethoxy)pyrimidin-4-yl)morpholine] was tested, and the IC50 was 100 to 5000 nM. `Cn1cc(CCOc2nc(N3CCOCC3)cc(-n3ccc(C4CCCCC4)n3)n2)cn1` [Compound 196, 4-(6-(3-cyclohexyl-1H-pyrazol-1-yl)-2-(2-(1-methyl-1H-pyrazol-4-yl)ethoxy)pyrimidin-4-yl)morpholine] was tested, and the IC50 was > 5000 nM. `CN(C)Cc1cc(-c2ccccc2)nn1-c1cc(N2CCOCC2)nc(OCC2(C)COC2)n1` [Compound 207, N,N-dimethyl-1-(1-(2-((3-methyloxetan-3-yl)methoxy)-6-morpholinopyrimidin-4-yl)-3-phenyl-1H-pyrazol-5-yl)methanamine] gave an IC50 of 10 to 100 nM. In the case of `Cn1cc(CCOc2nc(Oc3cc(-c4ccccc4)n(C)n3)cc(N3CCOCC3)n2)cn1` [Compound 213, 4-(2-(2-(1-methyl-1H-pyrazol-4-yl)ethoxy)-6-((1-methyl-5-phenyl-1H-pyrazol-3-yl)oxy)pyrimidin-4-yl)morpholine], the IC50 is reported as 100 to 5000 nM. In the case of `CN(C)C(=O)c1cc(-c2ccccc2)nn1-c1cc(N2CCOCC2)nc(OCCc2cnn(C)c2)n1` [Compound 222, N,N-dimethyl-1-(2-(2-(1-methyl-1H-pyrazol-4-yl)ethoxy)-6-morpholinopyrimidin-4-yl)-3-phenyl-1H-pyrazole-5-carboxamide], the IC50 is reported as 100 to 5000 nM. Work on `Cc1cccc(-c2ccn(-c3nc4c(c(N5CCOCC5)n3)CN(CCc3ccn(C)n3)C4)n2)c1` [Compound 239, 4-(6-(2-(1-methyl-1H-pyrazol-3-yl)ethyl)-2-(3-(m-tolyl)-1H-pyrazol-1-yl)-6,7-dihydro-5H-pyrrolo[3,4-d]pyrimidin-4-yl)morpholine hydrochloride] yielded an IC50 of 10 to 100 nM. For `Cc1cc(-c2ccccc2)nn1-c1nc2c(c(N3CCOCC3)n1)CN(CCc1ccn(C)n1)C2` [Compound 240, 4-(6-(2-(1-methyl-1H-pyrazol-3-yl)ethyl)-2-(5-methyl-3-phenyl-1H-pyrazol-1-yl)-6,7-dihydro-5H-pyrrolo[3,4-d]pyrimidin-4-yl)morpholine], the IC50 was 100 to 5000 nM. Work on `Cc1cc(-c2ccccc2)nn1-c1cc(N2CCOCC2)c2[nH]ccc2n1` [Compound 243, 4-(5-(5-methyl-3-phenyl-1H-pyrazol-1-yl)-1H-pyrrolo[3,2-b]pyridin-7-yl)morpholine] yielded an IC50 of 100 to 5000 nM. Compound `Cn1cc(CCOc2nc(N3CCOCC3)cc(-n3ccc(-c4cccc5c4OCCN5)n3)n2)cn1` [Compound 244, 8-(1-(2-(2-(1-methyl-1H-pyrazol-4-yl)ethoxy)-6-morpholinopyrimidin-4-yl)-1H-pyrazol-3-yl)-3,4-dihydro-2H-benzo[b][1,4]oxazine] has an IC50 of 10 to 100 nM. For `Cc1cccc(N2CC(C)N(c3cc(N4CCOCC4)nc(OCCc4cnn(C)c4)n3)C2=O)c1` (stereo not drawn) [Compound 246, 4-methyl-3-(2-(2-(1-methyl-1H-pyrazol-4-yl)ethoxy)-6-morpholinopyrimidin-4-yl)-1-(m-tolyl)imidazolidin-2-one], the IC50 was 100 to 5000 nM. Compound `Cc1cccc(-c2cn(C)n(-c3cc(N4CCOCC4)nc(OCCc4cnn(C)c4)n3)c2=O)c1` [Compound 247, 1-methyl-2-(2-(2-(1-methyl-1H-pyrazol-4-yl)ethoxy)-6-morpholinopyrimidin-4-yl)-4-(m-tolyl)-1,2-dihydro-3H-pyrazol-3-one] has an IC50 of 100 to 5000 nM. For `Cc1cccc(CC(=O)Nc2nc(OCCc3cnn(C)c3)cc(N3CCOCC3)n2)c1` [Compound 248, N-(4-(2-(1-methyl-1H-pyrazol-4-yl)ethoxy)-6-morpholinopyrimidin-2-yl)-2-(m-tolyl)acetamide], the IC50 was > 5000 nM. Work on `Cc1cccc(CC(=O)Nc2cc(N3CCOCC3)nc(OCCc3cnn(C)c3)n2)c1` [Compound 249, N-(2-(2-(1-methyl-1H-pyrazol-4-yl)ethoxy)-6-morpholinopyrimidin-4-yl)-2-(m-tolyl)acetamide] yielded an IC50 of 100 to 5000 nM. For `Cc1cccc(CC(=O)N(C)c2nc(OCCc3cnn(C)c3)cc(N3CCOCC3)n2)c1` [Compound 250, N-methyl-N-(4-(2-(1-methyl-1H-pyrazol-4-yl)ethoxy)-6-morpholinopyrimidin-2-yl)-2-(m-tolyl)acetamide], the IC50 was > 5000 nM. `Cc1cccc(-c2ccn(-c3nc(OCCc4cnn(C)c4)cc(N4CCOCC4)n3)n2)c1` [Compound 251, 4-(6-(2-(1-methyl-1H-pyrazol-4-yl)ethoxy)-2-(3-(m-tolyl)-1H-pyrazol-1-yl)pyrimidin-4-yl)morpholine] gave an IC50 of 3 to 10 nM. With `CN(c1nc(OCCc2cnn(C)c2)cc(N2CCOCC2)n1)c1ncc2ccccc2n1` [Compound 252, N-methyl-N-(4-(2-(1-methyl-1H-pyrazol-4-yl)ethoxy)-6-morpholinopyrimidin-2-yl)quinazolin-2-amine] the IC50 was > 5000 nM. For `CN(C)Cc1ccc2nn(-c3cc(N4CCOCC4)nc(OCCc4cnn(C)c4)n3)cc2c1` [Compound 253, N,N-dimethyl-1-(2-(2-(2-(1-methyl-1H-pyrazol-4-yl)ethoxy)-6-morpholinopyrimidin-4-yl)-2H-indazol-5-yl)methanamine], the IC50 was 10 to 100 nM. In the case of `Cc1c2cc(CN(C)C)ccc2nn1-c1cc(N2CCOCC2)nc(OCCc2cnn(C)c2)n1` [Compound 254, N,N-dimethyl-1-(3-methyl-2-(2-(2-(1-methyl-1H-pyrazol-4-yl)ethoxy)-6-morpholinopyrimidin-4-yl)-2H-indazol-5-yl)methanamine], the IC50 is reported as 100 to 5000 nM.
